The values below come from patent EP0152799A1, “Compounds having peripheral calcium antagonist, anticonvulsive and eumetabolic activity, processes for the preparation thereof and pharmaceutical compositions containing them” (PULITZER ITALIANA S.p.A., priority 1984, dated 1985).

The test system of one assay is cerebral district. As to the kind of experiment: Cerebral perfusion in the rabbit (cerebral vasodilative activity). Format: in vivo. Conditions: 0.9 uM i.a.; for Area mm^2 / Difference in pressure / Δ: perfusion of the cerebral district. The method, then:
The cerebral vasodilative activity of PU 122 in comparison with Flunarizine was tested by the method of the cerebral perfusion in the rabbit according to the procedure of Von P. Vaupel e H. Hutten (1980), by measurement of the decrease of the peripheral resistances in the cerebral district.
Said changement was determined by means of a transducer, by measuring the hematic pressure at the cerebral level and scoring the lasting of action of the compound under test.
The two test compounds were administered by intraarterial route at the dosage of 0.9 uM, in a volume of 0.2 ml for each animal.

In another assay the test system is Rat hind quarters. As to the kind of experiment: Rat hind quarters perfused with hyperkaliemic tyrode (vasodilative activity). The note with it: 5 x 10^-5 M; for Perfusion pressure after 10' / Perfusion pressure basal: hyperkaliemic tyrode; for Perfusion pressure Δ: basal minus after 10'. An excerpt:
The vasodilative activity of PU 122 in comparison with Flunarizine was further evaluated according to the procedure described by F.N. Fastier and F.H. Smirk, (J. Pharm. Exp. Therap. 89, 256-270; […]), by measuring the antagonist action of the test compound against hyperkaliemia induced vasoconstric- tion.
The compounds under test were used at 5.10^-5 M concentration.

In the next assay the test system is rat brain synaptosomes. As to the kind of experiment: 45 Ca uptake in synaptosomial preparations (Ca antagonist activity). The class given is biochemical. Conditions: concentration not given.
In assay [1] the test system is human platelet rich plasma (PRP). As to the kind of experiment: Platelet aggregation induced by ADP. The class given is cell-based. Conditions: compared with acetylsalicylic acid. How it is done:
The inhibitory effect on platelet aggregation induced BY ADP on human platelet rich plasma (PRP) was evaluated for PU 122 in comparison with acetylsalicy lie acid, according to the procedure described by G.V.R. Born (Nature, 194, 927; 1962).

As to `Fc1ccc(C(c2ccc(F)cc2)N2CCN(C/C=C/c3ccccc3)CC2)cc1` [Flunarizine, reference compound], in the assay on cerebral district, the “Lasting of the effect” value was found to be 12.50 min, the “Area mm^2” value worked out at 314.2 mm^2, the Difference in pressure is 10.25 and the Δ came to 25.12. In the assay with Rat hind quarters, the “Perfusion pressure after 10'” value was 95.00, the “Perfusion pressure Δ” value is given as 80.00 and the Perfusion pressure basal was determined as 175.00.

As for `COc1ccc(C=CCN2CCN(C(c3ccc(F)cc3)c3ccc(F)cc3)CC2)cc1OC.Cl.Cl` [PU 122, 1-(4,4'-Difluorobenzhydryl)-4-(3,4-dimethoxycinnamyl)piperazine dihydrochloride], in the assay with cerebral district, the “Lasting of the effect” value stood at 16.70 min, the “Area mm^2” value is 487.14 mm^2, the Difference in pressure was determined as 18.75 and the Δ is given as 29.17. In the assay on Rat hind quarters, the “Perfusion pressure after 10'” value stood at 90.00, the “Perfusion pressure Δ” value came to 105.00 and the Perfusion pressure basal turned out to be 195.00. Also, the “Ca antagonist activity (effect on 45 Ca uptake)” value with rat brain synaptosomes was -16.4%. In assay [1], the “IC50 platelet antiaggregating activity” value was “substan tially better than that of acetylsalicylic acid”.
